Measured values published in patent publication US20240382461A1, “PHARMACEUTICAL COMPOSITION AND METHOD FOR PREVENTION AND TREATMENT OF HEARING LOSS” (PHARMAZZ, INC., priority 2023, published 2024).
Entries after “also recorded” stand apart in the source; their conditions may differ. Numbered stars: 1 amine (or outer) side, 2 acyl side, 3 side chain; on linkers, the order of the positions; unused ones are H or OH. Ends that are not written are not given here. Suc = O=C(CCC(=O)[*:2])[*:1]

Key:
[1] = test system: adult mouse cochlear cells; test: Cultured adult mouse cochlear cells, JC 1 dye mitochondrial membrane potential, confocal imaging; format: cell-based; details: 1 ng/ml for 7 days
Protocol: Inner ears comprising cochlear neuroepithelium from adult mice were dissected after anesthetizing with urethane 1.5 g/kg body weight and euthanizing with cervical dislocation. Inner ears were placed in cold saline, and the cochlea was dissected under the dissection microscope. The isolated cochlea was placed in a cold saline solution and chopped finely in a sterile condition inside a culture hood. Minced tissues were transferred to a 15 ml falcon tube and centrifuged at 1000 RPM for 2 min. The supernatant was discarded, and the pellet was submersed in 1× Trypsin EDTA solution (Cat No. R-001-100, GIBCO, MA) and triturated using a 1 ml pipette and cut-tip. The triturated tissue was incubated at 37° C. for 20 min. After 20 min, the digested tissues were vortexed gently and checked for proper digestion of the tissues. The digestion step was repeated by adding the same volume of 1× trypsin EDTA solution and incubating for 10 minutes. After a satisfactory level of digestion, the tissue solution was filtered with a sieve of pore size 40 μm to isolate cell suspension and remove undigested tissues. The cell suspension was collected in a 15 ml falcon tube, and 1 ml of serum-containing cell culture media was added and mixed properly to stop further digestion. The cochlear cell solution was centrifuged at 2000 RPM for 3 min at RT. The cell pellet was resuspended in 8 ml of 10% fetal bovine serum containing culture media and plated in 60 mm tissue culture-treated plastic plates (Alkali Scientific Inc. Fort Lauderdale, FL). The Neurobasal culture media supplemented with B-27 (Gibco, Waltham, MA) was used for culturing cochlear cells. […]
Sovateltide treatment—The cultured mouse cochlear cells were treated with 1 ng/ml sovateltide for 7 days in 2 different conditions—1) Serum-free media and 2) Serum containing media. […] Fluorescence confocal microscopy imaging was done on live cells. […]
JC-1 is a novel cationic carbocyanine dye that accumulates in mitochondria. The dye exists as a monomer at low concentrations and yields green fluorescence, similar to fluorescein. […]

[2] = test system: ETB and vascular endothelial growth factor (VEGF) in the cerebrovasculature; details: administration on post-natal day 21; rat brain; cited from earlier work
ETA receptors = target: T1, ETA receptors (Sus scrofa, UniProt Q29010); details: cited from earlier work
T1 sequence (Q29010 21-427): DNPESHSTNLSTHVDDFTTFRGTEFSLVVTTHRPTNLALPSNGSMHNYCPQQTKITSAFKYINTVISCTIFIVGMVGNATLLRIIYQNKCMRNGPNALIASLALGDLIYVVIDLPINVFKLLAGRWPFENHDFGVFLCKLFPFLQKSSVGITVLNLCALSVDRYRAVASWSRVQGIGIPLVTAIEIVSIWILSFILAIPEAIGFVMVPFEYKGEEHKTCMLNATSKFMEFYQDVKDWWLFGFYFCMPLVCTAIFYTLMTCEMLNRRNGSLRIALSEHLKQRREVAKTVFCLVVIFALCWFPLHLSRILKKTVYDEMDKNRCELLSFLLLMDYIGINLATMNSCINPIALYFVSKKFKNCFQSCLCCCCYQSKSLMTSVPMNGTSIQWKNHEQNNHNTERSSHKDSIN

[3] = test system: aminoglycoside-induced hearing loss; test: Kanamycin/furosemide (aminoglycoside)-induced hearing loss in mice, intra-tympanic injection, ABR; format: in vivo, mouse; details: after kanamycin/furosemide (K/F) exposure; 5 and 15 ug/kg intra-tympanic; 8, 16 and 32 kHz
Description: (§1) The study aimed to determine whether Sovateltide (IRL-1620, PMZ-1620); an endothelin-B receptor agonist has otoprotective efficacy and that Sovateltide can ameliorate noise- or aminoglycoside-induced hearing loss in a mouse model system. Animals received either unilateral intra-tympanic Sovateltide at one of two dose concentrations or vehicle control injection. The study conducted unilateral auditory brainstem response (ABR) hearing tests at baseline and again at least 14 days after noise or aminoglycoside exposure as the primary measurement. A gross anatomical examination of treated middle ears was also conducted at necropsy.
(§2) FIG. 4 describes the study design where male and female mice were divided into seven groups, each with ten mice. Groups 1-3 were treated with 112-decibel noise to induce cochlear trauma, whereas groups 4-6 were treated with kanamycin+frusomide to induce aminoglycoside-induced cochlear trauma, and group 7 was kept as the control. In addition, Sovateltide in two different doses was administered in groups 1, 2, 4, and 5, while the vehicle, phosphate-buffered saline, was administered in groups 3, 6, and 7. The auditory brainstem response (ABR) test was performed at baseline and day 14 after noise or aminoglycoside exposure.
[Male & female C57Bl/6 mice used in this study were obtained from Charles River Labs. […]

ETB receptors [4] = details: cited from earlier work
[5] = test system: noise-induced hearing loss; test: Noise-induced hearing loss in mice, intra-tympanic injection, auditory brainstem response (ABR); format: in vivo, mouse; details: after noise exposure
Description: as §1, §2
[Male & female C57Bl/6 mice used in this study were obtained from Charles River Labs. All study animals (n=69) underwent anesthesia via 87.5 mg/kg (Ketamine)/12.5 mg/kg (Xylazine) IP injection and baseline unilateral left ear ABR testing at 8, 16, and 32 kHz.
Study animals in Groups 1-6 (n=59) underwent cochlear trauma, either via noise (112 dB SPL, 8-16 kHz band, 2-hr duration) exposure while awake, with the goal of producing a moderate chronic hearing loss in all animals or a single injection of subcutaneous kanamycin and intraperitoneal furosemide on Day 0. The noise treatment typically produced moderate hearing losses in the range of 20-50 dB and scattered losses of outer hair cells but little, if any, loss of inner hair cells. […]

ETB receptors [6] = test: Ki of sovateltide for ETB receptors (literature); format: binding; details: ratio of Ki values

Substance: synthetic analog of ET-1, ETB receptor agonist; Suc-Asp-Glu-Glu-Ala-Val-Tyr-Phe-Ala-His-Leu-Asp-Ile-Ile-Trp; CAS #142569-99-1 (Suc-DEEAVYFAHLDIIW) [Sovateltide, N-Succinyl-[Glu9, Ala11,15] endothelin 1]
- mitochondrial protection (JC 1 mitochondrial membrane potential) versus saline control ([1]; serum containing media): reduction in compromised mitochondrial protection
- mitochondrial protection (JC 1 mitochondrial membrane potential) versus saline control ([1]; serum-free media): more mitochondrial protection than control
- mitochondrial protection (JC 1 mitochondrial membrane potential) versus saline control ([1]; serum-free media, listed as sovateltide): notable improvement in mitochondrial protection and improved cellular viability
- ETB and VEGF expression in the cerebrovasculature [2]: significant increase
- Ki (ETA receptors): 1900 nM
- ABR threshold shift from baseline to Day 14 versus vehicle [3]: not significantly different; also recorded: did not produce statistically reliable differences; also recorded: did not have any discernible impact
- Ki (ETB receptors [4]): 0.016 nM
- ABR threshold shift at 8 kHz versus vehicle ([5]; 5 ug/kg intra-tympanic, p=0.2513): trend of lower threshold shift
- ABR threshold shift at 8 kHz versus vehicle ([5]; 15 ug/kg intra-tympanic, p=0.0834): trend of lower threshold shift; also recorded: nearly significant effect
- ABR threshold shift from baseline to Day 14 versus vehicle ([5]; 5 and 15 ug/kg intra-tympanic, 8, 16 and 32 kHz): not significantly different; also recorded: did not produce statistically reliable differences
- selectivity for ETB over ETA receptors (ETB receptors [6]): ~120,000 times
